Like-named read-outs stand apart in the source and are kept apart here.
Legend:
PXR = PXR (Homo sapiens (Human), UniProt O75469); assay: Human PXR activation assay (luciferase reporter gene assay, DPX2 cells); format: cell-based; conditions: human
Protocol: A stably transformed tumor cell line (DPX2) was plated on 96-well microtiter plates. DPX2 cells harbor the human PXR gene (NR112) and a luciferase reporter gene linked to two promoters identified in the human CYP3A4 gene, namely XREM and PXRE. […] The number of viable cells was determined and the reporter gene activity was assessed. Positive control: […]

in vitro = conditions: human
Protocol: For the antiviral assay utilizing MT4 cells, 0.4 μL of […] test concentration of 3-fold serially diluted compound in DMSO was added to 40 μL of cell growth medium (RPMI 1640, 10% FBS, 1% penicilline/Streptomycine, 1% L-Glutamine, 1% HEPES) in each well of 384-well assay plates (10 concentrations) in quidruplicate.
1 mL aliquots of 2×10^6 MT4 cells are pre-infected for 1 and 3 hours respectively at 37° C. with 25 μL (MT4) or of either cell growth medium (mock-infected) or a fresh 1:250 dilution of an HIV-IIIb concentrated ABI stock (0.004 m.o.i. for MT4 cells). Infected and uninfected cells are diluted in cell growth medium and 35 μL of 2000 (for MT4) cells is added to each well of the assay plates.
Assay plates were then incubated in a 37° C. incubator. After 5 days of incubation, 25 μL of 2× concentrated CellTiter-Glo™ Reagent (catalog #G7573, Promega Biosciences, Inc., Madison, Wis.) was added to each well of the assay plate. Cell lysis was carried out by incubating at room temperature for 2-3 minutes, and then chemiluminescence was read using the Envision reader (PerkinElmer).

Chain of PXR (O75469 whole entry): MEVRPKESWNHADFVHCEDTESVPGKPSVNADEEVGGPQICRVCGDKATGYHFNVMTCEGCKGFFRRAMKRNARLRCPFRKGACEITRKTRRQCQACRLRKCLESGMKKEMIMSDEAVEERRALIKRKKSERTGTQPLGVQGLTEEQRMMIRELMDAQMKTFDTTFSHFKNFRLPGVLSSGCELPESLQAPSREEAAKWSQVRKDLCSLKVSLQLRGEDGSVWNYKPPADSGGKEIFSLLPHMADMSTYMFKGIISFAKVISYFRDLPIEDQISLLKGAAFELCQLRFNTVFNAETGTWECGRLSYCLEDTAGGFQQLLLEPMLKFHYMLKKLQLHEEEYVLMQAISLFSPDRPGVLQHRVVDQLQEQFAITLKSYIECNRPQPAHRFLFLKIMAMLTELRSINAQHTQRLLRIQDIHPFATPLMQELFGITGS

| Structure (SMILES) | Emax at 24 h, 15 µM (PXR) [%] | CC50 at 5 days (in vitro; CC50 nM in MT-4) [nM] | other results |
| --- | --- | --- | --- |
| O=C(NCc1c(F)cc(F)cc1F)c1cn2c(c(O)c1=O)C(=O)N1[C@H]3CC(F)C(C3)[C@@H]1C2 (stereo in doubt) [Compound 56, (1R,2S,4R,12aR)-2-fluoro-7-hydroxy-6,8-dioxo-N-(2,4,6-trifluorobenzyl)-1,2,3,4,6,8,12,12a-octahydro-1,4-methanodipyrido[1,2-a:1′,2′-d]pyrazine-9-carboxamide] | 3 | 17200 |  |
| O=C(NCc1ccc(F)c(F)c1F)c1cn2c(c(O)c1=O)C(=O)N1[C@@H]3CC[C@@H](C3)O[C@H]1C2 [Compound 44, (13aS)-8-hydroxy-7,9-dioxo-N-(2,3,4-trifluorobenzyl)-2,3,4,5,7,9,13,13a-octahydro-2,5-methanopyrido[1′,2′:4,5]pyrazino[2,1-b][1,3]oxazepine-10-carboxamide] | 4 | 9870 |  |
| O=C(N[C@@H](c1ccc(F)cc1F)C(F)(F)F)c1cn2c(c(O)c1=O)C(=O)N1C(C2)O[C@@H]2CC[C@H]1C2 (stereo partly drawn) [Compound 54, (2R,5S)-N—((S)-1-(2,4-difluorophenyl)-2,2,2-trifluoroethyl)-8-hydroxy-7,9-dioxo-2,3,4,5,7,9,13,13a-octahydro-2,5-methanopyrido[1′,2′:4,5]pyrazino[2,1-b][1,3]oxazepine-10-carboxamide] | 2 | 3240 |  |
| O=C(NCc1ccc(F)cc1F)c1cn2c(c(O)c1=O)C(=O)N1C(C2)[N@@]2CC[C@@H]1C2 (stereo partly drawn) [Compound 4, (1S,4R)-N-(2,4-difluorobenzyl)-7-hydroxy-6,8-dioxo-3,4,6,8,12,12a-hexahydro-2H-1,4-methanopyrido[1′,2′:4,5]pyrazino[1,2-a]pyrimidine-9-carboxamide] | 3 | 45800 |  |
| O=C(NCc1cccc(F)c1F)c1cn2c(c(O)c1=O)C(=O)N1[C@@H]3CC[C@@H](C3)O[C@H]1C2 [Compound 16, (2S,5R,13aS)-N-(2,3-difluorobenzyl)-8-hydroxy-7,9-dioxo-2,3,4,5,7,9,13,13a-octahydro-2,5-methanopyrido[1′,2′:4,5]pyrazino[2,1-b][1,3]oxazepine-10-carboxamide] | 17 | 13600 |  |
| O=C(NCc1c(F)cc(F)cc1F)c1cn2c(c(O)c1=O)C(=O)N1[C@H]3C[C@H](C3)[C@@H]1C2 (single isomer, unassigned) [Compound 97] |  |  | Emax at 24 h, 15 µM (PXR; 15 μM, relative to maximum fold induction by 10 or 20 μM rifampicin, DPX2 cells, 24 hours, read-out: % Emax at 15 μM): 9%; CC50 at 5 days (in vitro; MT-4 cells, mock-infected, CC50 nM in MT-4, MT-4 cells, 5 days incubation): 17300 nM |
| O=C(NCc1ccc(F)cc1Cl)c1cn2c(c(O)c1=O)C(=O)N1[C@H]3CC[C@H](C3)[C@@H]1C2 [Compound 68, (1R,4S,12aR)-N-(2-chloro-4-fluorobenzyl)-7-hydroxy-6,8-dioxo-1,2,3,4,6,8,12,12a-octahydro-1,4-methanodipyrido[1,2-a:1′,2′-d]pyrazine-9-carboxamide] | 6 | 4180 |  |
| O=C(NCc1ccc(F)c(Cl)c1)c1cn2c(c(O)c1=O)C(=O)N1[C@H]3CC[C@H](C3)[C@@H]1C2 [Compound 75, (1R,4S,12aR)-N-(3-chloro-4-fluorobenzyl)-7-hydroxy-6,8-dioxo-1,2,3,4,6,8,12,12a-octahydro-1,4-methanodipyrido[1,2-a:1′,2′-d]pyrazine-9-carboxamide] | 0 | 5290 |  |
| O=C(NCc1ccc(F)cc1C(F)(F)F)c1cn2c(c(O)c1=O)C(=O)N1[C@H]3CC[C@H](C3)O[C@@H]1C2 [Compound 62, (2R,5S,13aR)-N-(4-fluoro-2-(trifluoromethyl)benzyl)-8-hydroxy-7,9-dioxo-2,3,4,5,7,9,13,13a-octahydro-2,5-methanopyrido[1′,2′:4,5]pyrazino[2,1-b][1,3]oxazepine-10-carboxamide] |  | 3490 |  |
| C[C@@H](NC(=O)c1cn2c(c(O)c1=O)C(=O)N1[C@H]3CC[C@H](C3)O[C@@H]1C2)c1ccc(F)cc1F [Compound 12, (2R,5S,13aR)-N—((R)-1-(2,4-difluorophenyl)ethyl)-8-hydroxy-7,9-dioxo-2,3,4,5,7,9,13,13a-octahydro-2,5-methanopyrido[1′,2′:4,5]pyrazino[2,1-b][1,3]oxazepine-10-carboxamide] |  | 3340 |  |
| O=C(NCc1cc(Cl)c(F)cc1F)c1cn2c(c(O)c1=O)C(=O)N1[C@H]3CC[C@H](C3)O[C@@H]1C2 [Compound 65, (2R,5S,13aR)-N-(5-chloro-2,4-difluorobenzyl)-8-hydroxy-7,9-dioxo-2,3,4,5,7,9,13,13a-octahydro-2,5-methanopyrido[1′,2′:4,5]pyrazino[2,1-b][1,3]oxazepine-10-carboxamide] |  | 2510 |  |
| O=C(NCc1ccc(F)c(C(F)(F)F)c1)c1cn2c(c(O)c1=O)C(=O)N1[C@@H]3CC[C@@H](C3)O[C@H]1C2 [Compound 25, (2S,5R,13aS)-N-(4-fluoro-3-(trifluoromethyl)benzyl)-8-hydroxy-7,9-dioxo-2,3,4,5,7,9,13,13a-octahydro-2,5-methanopyrido[1′,2′:4,5]pyrazino[2,1-b][1,3]oxazepine-10-carboxamide] |  | 5230 |  |
| C[C@H](NC(=O)c1cn2c(c(O)c1=O)C(=O)N1[C@H]3CC[C@H](C3)O[C@@H]1C2)c1ccc(F)cc1 [Compound 22, (2R,5S,13aR)-N—((S)-1-(4-fluorophenyl)ethyl)-8-hydroxy-7,9-dioxo-2,3,4,5,7,9,13,13a-octahydro-2,5-methanopyrido[1′,2′:4,5]pyrazino[2,1-b][1,3]oxazepine-10-carboxamide] |  | 4430 |  |
| O=C(NCc1cccc(C(F)(F)F)c1F)c1cn2c(c(O)c1=O)C(=O)N1[C@H]3CC[C@H](C3)[C@@H]1C2 [Compound 74, (1R,4S,12aR)-N-(2-fluoro-3-(trifluoromethyl)benzyl)-7-hydroxy-6,8-dioxo-1,2,3,4,6,8,12,12a-octahydro-1,4-methanodipyrido[1,2-a:1′,2′-d]pyrazine-9-carboxamide] |  | 4340 |  |
| O=C(NCc1ccc(Cl)c(F)c1)c1cn2c(c(O)c1=O)C(=O)N1[C@@H]3CC[C@@H](C3)O[C@H]1C2 [Compound 26, (2S,5R,13aS)-N-(4-chloro-3-fluorobenzyl)-8-hydroxy-7,9-dioxo-2,3,4,5,7,9,13,13a-octahydro-2,5-methanopyrido[1′,2′:4,5]pyrazino[2,1-b][1,3]oxazepine-10-carboxamide] |  | 8840 |  |
| O=C(NCc1ncccc1C(F)(F)F)c1cn2c(c(O)c1=O)C(=O)N1[C@@H]3CC[C@@H](C3)O[C@H]1C2 [Compound 49, (2S,5R,13aS)-8-hydroxy-7,9-dioxo-N-((3-(trifluoromethyl)pyridin-2-yl)methyl)-2,3,4,5,7,9,13,13a-octahydro-2,5-methanopyrido[1′,2′:4,5]pyrazino[2,1-b][1,3]oxazepine-10-carboxamide] |  | 52200 |  |
| C[C@H](NC(=O)c1cn2c(c(O)c1=O)C(=O)N1[C@@H]3CC[C@@H](C3)O[C@H]1C2)c1ccc(F)cc1 [Compound 21, (2S,5R,13aS)-N—((S)-1-(4-fluorophenyl)ethyl)-8-hydroxy-7,9-dioxo-2,3,4,5,7,9,13,13a-octahydro-2,5-methanopyrido[1′,2′:4,5]pyrazino[2,1-b][1,3]oxazepine-10-carboxamide] |  | 13000 |  |
| O=C(NCc1ccc(F)cc1F)c1cn2c(c(O)c1=O)C(=O)N1C(C2)[N@]2CC[C@H]1C2 (stereo partly drawn) [Compound 6, (1R,4S)-N-(2,4-difluorobenzyl)-7-hydroxy-6,8-dioxo-3,4,6,8,12,12a-hexahydro-2H-1,4-methanopyrido[1′,2′:4,5]pyrazino[1,2-a]pyrimidine-9-carboxamide] | 0 |  |  |
| O=C(NCc1cc(F)cc(F)c1)c1cn2c(c(O)c1=O)C(=O)N1[C@@H]3CC[C@@H](C3)O[C@H]1C2 [Compound 24, (2S,5R,13aS)-N-(3,5-difluorobenzyl)-8-hydroxy-7,9-dioxo-2,3,4,5,7,9,13,13a-octahydro-2,5-methanopyrido[1′,2′:4,5]pyrazino[2,1-b][1,3]oxazepine-10-carboxamide] |  | 12100 |  |
| O=C(NC1(c2ccc(F)cc2F)CCOCC1)c1cn2c(c(O)c1=O)C(=O)N1C(C2)O[C@H]2CC[C@@H]1C2 (stereo partly drawn) [Compound 35, (2S,5R)-N-(4-(2,4-difluorophenyl)tetrahydro-2H-pyran-4-yl)-8-hydroxy-7,9-dioxo-2,3,4,5,7,9,13,13a-octahydro-2,5-methanopyrido[1′,2′:4,5]pyrazino[2,1-b][1,3]oxazepine-10-carboxamide] |  | 15500 |  |
| O=C(NCc1ccc(F)cc1F)c1cn2c(c(O)c1=O)C(=O)N1[C@@H]3CC[C@@H](C3)O[C@H]1C2 (racemic) [Compound 1, N-(2,4-difluorobenzyl)-8-hydroxy-7,9-dioxo-2,3,4,5,7,9,13,13a-octahydro-2,5-methanopyrido[1′,2′:4,5]pyrazino[2,1-b][1,3]oxazepine-10-carboxamide] |  | 5820 |  |
